Molecular target: V1 receptor (Rattus norvegicus, UniProt P30560)
Assay: biochemical
Type: binding

V1 receptor, sequence (P30560 whole entry): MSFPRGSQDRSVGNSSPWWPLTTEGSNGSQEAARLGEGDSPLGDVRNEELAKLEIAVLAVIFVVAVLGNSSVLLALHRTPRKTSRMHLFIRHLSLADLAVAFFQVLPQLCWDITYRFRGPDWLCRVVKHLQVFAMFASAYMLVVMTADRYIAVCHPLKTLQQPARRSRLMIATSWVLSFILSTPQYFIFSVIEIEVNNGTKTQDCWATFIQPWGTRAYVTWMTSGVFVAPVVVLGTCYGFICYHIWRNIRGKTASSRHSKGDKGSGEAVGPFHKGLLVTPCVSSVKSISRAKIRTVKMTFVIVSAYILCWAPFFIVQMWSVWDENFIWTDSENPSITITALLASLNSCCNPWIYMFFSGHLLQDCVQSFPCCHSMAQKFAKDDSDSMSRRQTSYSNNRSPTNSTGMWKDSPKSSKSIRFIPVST

| Compound | IC50 |
| --- | --- |
| CC(=O)N1CCN(C(=O)CCCCCOc2ccc(C(=O)N3CCC(N4C(=O)CCc5ccccc54)CC3)cc2)CC1 [Example 271, 1-{1-(4-[5-(4-Acetyl-1-piperazinylcarbonyl)pentyloxy]benzoyl)-4-piperidinyl}-3,4-dihydrocarbostyril] | 42 nM |
| O=C(c1ccc(OCCCC(O)CN2CCOCC2)cc1)N1CCC(N2C(=O)CCc3ccccc32)CC1 (centres unmarked) [Example 189, 1-{1-[4-(4-Hydroxy-5-morpholinopentyloxy)benzoyl]-4-piperidinyl}-3,4-dihydrocarbostyril] | 130 nM |
| O=C(c1ccc(OCCCCC(O)CN2CCC(Cc3ccccc3)CC2)cc1)N1CCC(N2C(=O)CCc3ccccc32)CC1 (centres unmarked) [Example 304, 1-{1-(4-[5-Hydroxy-6-(4-benzyl-1-piperidinyl)hexyloxy]benzoyl]-piperidinyl}-3,4-dihydrocarbostyril] | 37 nM |
| CC(=O)N[C@H](Cc1c[nH]cn1)C(=O)NCCCOc1ccc(C(=O)N2CCC(N3C(=O)CCc4ccccc43)CC2)cc1 [Example 208, 1-{1-[4-(3-[2-(R)-Acetylamino-2-(4(1H)-imidazolyl)methylacetylamino]propoxy)benzoyl]-4-piperidinyl}-3,4-dihydrocarbostyril] | 100 nM |
| O=C(c1ccc(OCCCCC(O)CN2CCCC2)cc1)N1CCC(N2C(=O)CCc3ccccc32)CC1 (centres unmarked) [Example 202, 1-{1-[4-(5-Hydroxy-6-(1-pyrrolidinyl)hexyloxy)benzoyl]-4-piperidinyl}-3,4-dihydrocarbostyril] | 27 nM |
| CN(C)C(=O)CCCOc1ccc(C(=O)N2CCC(N3C(=O)CCc4ccccc43)CC2)cc1 [Example 148, 1-{1-[4-(3-Dimethylaminocarbonylpropoxy)benzoyl]-4-piperidinyl}-3,4-dihydrocarbostyril] | 360 nM |
| O=C(NCCCC[C@H](NC(=O)OCc1ccccc1)C(=O)NCCCOc1ccc(C(=O)N2CCC(N3C(=O)CCc4ccccc43)CC2)cc1)OCc1ccccc1 [Example 222, 1-[1-{4-[3-(S)-{N,N'76434 -Di(benzyloxycarbonyl)lysyl)aminopropoxy]benzoyl}-4-piperidinyl]-3,4-dihydrocarbostyril] | 650 nM |
| CCSc1ccc(C(=O)N2CCC(N3C(=O)CCc4ccccc43)CC2)cc1 [Example 74, 1-[1-(4-Ethylthiobenzoyl)-4-piperidinyl]-3,4-dihydrocarbostyril] | 180 nM |
| CC[N+](CC)(CC)CCCCCOc1ccc(C(=O)N2CCC(N3C(=O)CCc4ccccc43)CC2)cc1 [Example 235, 1-{1-[4-(5-Triethylammouniumpentyloxy)benzoyl]-4-piperidinyl)-3,4-dihydrocarbostyril bromide] | 66 nM |
| O=C(c1ccc(OCCCCC[S+]([O-])c2ncccn2)cc1)N1CCC(N2C(=O)CCc3ccccc32)CC1 (centres unmarked) [Example 280, 1-{1-(4-[5-(2-Pyrimidylsufinyl)pentyloxy]benzoyl)-4-piperidinyl}-3,4-dihydrocarbostyril] | 87 nM |
| NC(=O)CNC(=O)CCCCCCCOc1ccc(C(=O)N2CCC(N3C(=O)CCc4ccccc43)CC2)cc1 [Example 16, 1-(1-[4-(7-Carbamoylmethylaminocarbonylheptyloxy)benzoyl]-4-piperidinyl}-3,4-dihydrocarbostyril] | 150 nM |
| O=C(CN1CCOCC1)NCCCCCOc1ccc(C(=O)N2CCC(N3C(=O)CCc4ccccc43)CC2)cc1 [Example 253, 1-{1-(4-[5-(2-Morpholinoacetylamino)pentyloxy]benzoyl)-4-piperidinyl}-3,4-dihydrocarbostyril] | 180 nM |
| C=CCN(C)CCCCCOc1ccc(C(=O)N2CCC(N3C(=O)CCc4ccccc43)CC2)cc1 [Example 245, 1-{1-(4-[5-(N-Allyl-N-methylamino)pentyloxy]benzoyl)-4-piperidinyl}-3,4-dihydrocarbostyril] | 54 nM |
| CN(C)CC(O)CCCCOc1ccc(C(=O)N2CCC(N3C(=O)CCc4ccccc43)CC2)cc1 (centres unmarked) [Example 131, 1-{1-[4-(6-Dimethylamino-5-hydroxyhexyloxy)benzoyl]-4-piperidinyl}-3,4-dihydrocarbostyril] | 66 nM |
